Reference: patent publication US20200222347A1, “ANTIMICROBIALS AND METHODS OF USE THEREOF” (priority 2013, published 2020)
Entries after “also recorded” stand apart in the source; their conditions may differ. Like-named read-outs stand apart in the source and are kept apart here.

Tests used:
C. albicans = experiment: Kirby-Bauer disc diffusion antimicrobial susceptibility; assay type: cell-based, Candida albicans; details: 100 mM, carrier water
S. aureus 33591 (MRSA) = experiment: as above; assay type: cell-based, Staphylococcus aureus; details: 100 mM, carrier water; 18-24 hours for aerobes
all bacteria tested = experiment: In vitro antimicrobial susceptibility, whole panel; assay type: cell-based
[1] = tested on: P. aeruginosa (ACTA 9027); assay type: in vivo
[2] = tested on: P. aeruginosa (ACTA 27853); assay type: in vivo; details: for bacterial burden of P. aeruginosa in skin tissue: 25 mM topical in water
EGF = experiment: Local growth hormones in tape stripped mouse skin wound by ELISA (FIG. 11, FIG. 13, Example 5); assay type: in vivo, mice
Method: (§1) Four different conditions were used: mice had back skin tape stripped and the stripped site (wound) was infected with P. aeruginosa; mice had back skin stripped and were not infected, mice had taped stripped, infected and treated with PCA, mice were tape stripped, uninfected, and treated with PCA. When used, the PCA test reagent was applied topically in an aqueous solution on the stripped site at two hours and 24 hours.
(§2) The testing reagents consisted of and PCA formulated at one dose, 25 mM, in an aqueous solution. Levels of IGF-1, TGF-β, and EGF levels in the skin tissue at 48 hours were measured by ELISA. There were two control groups; the stripped skin and the stripped skin and infected.

IGF-1 = experiment: as above; assay type: in vivo, mice
Method: as §1, §2

TGF-β = experiment: as above; assay type: in vivo, mice
Method: as §1, §2

[3] = tested on: Klebssilla pneumonia ATCC4352; experiment: Paper disc test with water or propylene glycol, Example 10; assay type: cell-based
[4] = tested on: normal human skin bacterial resident flora; experiment: Human skin disinfection study, Loma Linda, Phase 1; assay type: in vivo
Method: A randomized double blinded study was performed at Loma Linda Medical School. It involved 4 phases over two years' time. The methods were as follows:
[…] […] The controls were Chloroprep (2% Chlorhexidine in 70% isopropyl alcohol) and Betadine (9.0% to 12.0% available iodine in water). Cultures were taken before application and 20 minutes after application. The initial harvest was by a surface swab. Application was by soaked sponge, without force or scrubbing. The second harvest was performed with the back edge of a sterile knife blade scraping with pressure in attempt to maximize the harvest from the deeper sebaceous glands and hair follicles. The specimens were placed in culture media. Bacteriology was performed at WuXiAppTec in Marrietta, Ga.

Propionibacterium acnes = experiment: Human skin disinfection study, species analysis of cultures; assay type: in vivo; details: Phase IV
Method: Phase 1: The active test reagent was topically applied 1.54% PCA in sterile water to the anterior shoulder region. This 1.54% solution of PCA in water was used effectively in our prior animal wound studies. The controls were Chloroprep (2% Chlorhexidine in 70% isopropyl alcohol) and Betadine (9.0% to 12.0% available iodine in water). Cultures were taken before application and 20 minutes after application. The initial harvest was by a surface swab. Application was by soaked sponge, without force or scrubbing. The second harvest was performed with the back edge of a sterile knife blade scraping with pressure in attempt to maximize the harvest from the deeper sebaceous glands and hair follicles. The specimens were placed in culture media. Bacteriology was performed at WuXiAppTec in Marrietta, Ga.
Phase 2 included eleven medical students and was same method as Phase 1. However the PCA vehicle was changed to 70% isopropyl alcohol. This allowed a higher concentration of PCA than possible in sterile water, 10%. Phase 2a: The 70% isopropyl alcohol vehicle was tested for its bactericidal properties. […] In this way it was learned what specific bacterial strains PCA could eliminate or reduce.
Cultures were stored in ice and shipped in FedEx ice box to WuXiapptec in Marietta, Ga. for aerobic and anaerobic cultures and held for 21 days. […]

[5] = tested on: normal human skin bacterial resident flora; experiment: Summary of the 4 Phase Testing at Loma Linda; assay type: in vivo
Method: A randomized double blinded study was performed at Loma Linda Medical School. It involved 4 phases over two years' time.

[6] = tested on: skin stripped wounds infected with Pseudomonas aeruginosa (ATCC 27853); experiment: Histology of stripped, infected and treated skin wound, Example 6; details: 48 hours
[7] = tested on: Staphylococcus aureus ATCC 33591 (MRSA) biofilm; experiment: Drip flow biofilm reactor, PCA coated cloth and sintered mesh, Example 7; details: 30% concentration of PCA (FIG. 36)
[8] = 25 mM at 2 and 24 hours, tape stripped and infected with P. aeruginosa, 48 hours (FIG. 13)
[9] = 1% PCA in water, 20 minutes after application

SMILES: O=C(O)c1ccc(O)c(O)c1 [PCA, Protocatechuic acid]
- effectiveness against C. albicans (C. albicans): effective; also recorded: susceptible
- effectiveness against S. aureus 33591 (MRSA) (S. aureus 33591 (MRSA)): effective
- antibiotic properties (summary) (all bacteria tested): broad spectrum antibiotic
- overall effectiveness in the in vitro panel (all bacteria tested; 100 mM, carrier water, 18-24 hours for aerobes, 48 hours for anaerobes): effective against all bacteria tested
- most effective concentration for decreasing bacterial burden ([1]; of 50, 100 and 200 mM tested, 96 hours): 50 mM
- bacterial burden in the skin ([1]; topical in water, 50, 100 and 200 mM, at two hours and daily for four days, day five, none statistically significant): decreased the bacterial burden
- bacterial burden of P. aeruginosa in skin tissue ([2]; 48 and 96 hours): reduced the bacterial burden
- bacterial burden of P. aeruginosa in skin tissue ([2]; 48 hours): significantly decreased; also recorded: effective
- dose that was bactericidal on Pseudomonas aeruginosa on taped stripped rodent skin ([2]; calculated from 25 mM and applied volume): 0.00038 grams
- kill of Pseudomonas aeruginosa ([2]; in 48 hours, both reagents and dose (PCA 25, 50 mM; C3G 100, 200 mM)): 10,000 fold
- action on stripped skin wound of a rodent ([2]; topical, various calculated doses, in 48 to 96 hours): bactericidal
- EGF level in skin tissue (EGF; [8]): decreased; also recorded: lowest
- local growth hormone level of EGF (EGF; 25 mM, site of the untreated skin wound (FIG. 11C)): increased
- IGF-1 level in skin tissue (IGF-1; [8]): moderately elevated; also recorded: optimizes the IGF-1 production
- local growth hormone level of IGF-1 (IGF-1; 25 mM, site of the untreated skin wound (FIG. 11A)): increased
- optimal dose to optimize local growth hormones (IGF-1; IGF-1, TGF-β and EGF together, rodent skin wound): Approximately 25 mM
- TGF-β level in skin tissue (TGF-β; [8]): decreased
- local growth hormone level of TGF-Beta (TGF-β; 25 mM, site of the untreated skin wound (FIG. 11B)): increased
- inhibition of growth under the sample ([3]; PPG): I
- zone of inhibition ([3]; PPG): 3 mm
- inhibition of growth under the sample ([3]; Water): I
- zone of inhibition ([3]; Water): 2 mm
- anaerobic cultures with no growth [4, 9]: 6 of 22
- subjects with no growth on aerobic culture [4, 9]: 7 of 22
- anaerobic cultures with reduced colony growth ([4]; 1% PCA in water, of 22 cultures): 15
- aerobic cultures with reduced growth ([4]; 1% PCA in water, of 22 subjects): 10 cultures
- effectiveness as skin disinfectant, Phase 1 ([4]; 20 minutes after application): partially effective
- P. acnes growth after treatment (Propionibacterium acnes; culture #14, 20 minutes): no growth
- P. acnes growth after treatment (Propionibacterium acnes; culture #19, 60 minutes): no growth
- optimal dose to act as a human skin disinfectant ([5]; in vivo): greater than 10%
- removal of pathogens from human skin ([5]; solutions at 10% or higher): removed all pathogens
- collagen between the epidermis and dermis ([6]; 25 mM): collagen proliferation between the epidermis and dermis; also recorded: collagen layer formation
- dermal layer ([6]; 25 mM): thickened
- hair follicles ([6]; 25 mM): prominent with multiple cellular lining
- inflammation ([6]; 25 mM): abundant inflammation
- surface cellularity ([6]; 25 mM): abundant and multiple cell layers
- vascularity ([6]; 25 mM): moderate vascularity
- dermal layer ([6]; 50 mM): thicker
- hair follicles ([6]; 50 mM): double layer of cells
- inflammation ([6]; 50 mM): increased in the dermis and below the muscle layer
- surface cellularity ([6]; 50 mM): covered with multiple layers of cells
- vascularity ([6]; 50 mM): increased vascularity
- tissue repair / healing response by histology ([6]; PCA 25 and 50 mM, C3G 100 and 200 mM): stimulated tissue repair
- effectiveness against MRSA biofilm [7]: effective; also recorded: very effective
